One may read the pIC50 as −log10 of the IC50, conventionally taken in molar units. A word on the pKd: it is the negative decadic logarithm of the Kd, by convention in mol/L. Higher therefore signals a small Kd. For orientation: solubility means the concentration that dissolves in the medium under given conditions. Lower therefore signals little dissolved substance. A word on the chromatographic logD: it is a lipophilicity value derived from retention on a column. Read a low chromatographic logD as lower lipophilicity. The Papp is a coefficient for how fast a substance crosses the barrier.

Molecules are shown by their SMILES. pIC50, pKd: −log10 of the molar value. In brackets after ≈: the same amount, converted by molar mass.

Data set [1] concerns the target T1, Platelet-activating factor acetylhydrolase (Homo sapiens, UniProt Q13093).
T1 sequence (Q13093 whole entry): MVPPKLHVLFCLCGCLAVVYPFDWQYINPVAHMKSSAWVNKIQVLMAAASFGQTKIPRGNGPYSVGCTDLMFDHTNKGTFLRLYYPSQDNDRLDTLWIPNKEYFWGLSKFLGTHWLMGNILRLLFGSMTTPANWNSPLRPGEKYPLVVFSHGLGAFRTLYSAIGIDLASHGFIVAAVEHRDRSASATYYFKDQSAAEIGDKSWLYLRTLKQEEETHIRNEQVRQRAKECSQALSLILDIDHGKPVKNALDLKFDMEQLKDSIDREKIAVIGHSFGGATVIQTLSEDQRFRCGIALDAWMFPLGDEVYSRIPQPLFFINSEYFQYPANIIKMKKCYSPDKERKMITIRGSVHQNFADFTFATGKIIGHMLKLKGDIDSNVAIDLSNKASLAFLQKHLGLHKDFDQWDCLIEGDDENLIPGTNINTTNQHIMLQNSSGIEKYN
The data set is described as follows: Inhibition of human recombinant Lp-PLA2 using PED6 as substrate preincubated for 30 mins followed by substrate addition measured for 20 mins by fluorescence assay.

Data set [2] addresses T1, Platelet-activating factor acetylhydrolase. In words: Binding affinity to N-terminal His6-tagged Lp-PLA2 (47 to 429 residues) (unknown origin) expressed in sf21 insect cells by ITC assay. In general terms: ITC needs no label: the signal is the heat of the interaction.
Data set [3] in a line: Inhibition of human recombinant PLA2-7B using 2-thio-PAF as substrate after 20 mins by CPM-based fluorescence assay.
In data set [4] the target is T1, Platelet-activating factor acetylhydrolase. The data set is described as follows: Inhibition of human recombinant Lp-PLA2 using 2-thio-PAF as substrate after 20 mins by CPM-based fluorescence assay.
Data set [5] has the same target. In words: Inhibition of Lp-PLA2 in human whole plasma using 2-thio-PAF as substrate preincubated for 15 mins followed by substrate addition measured after 3 mins by CPM-based fluorescence assay. Type of data set: cell-free.
The species entered for another data set is Homo sapiens. In words: Selectivity ratio of IC50 for human recombinant PLA2-7B to IC50 for human recombinant Lp-PLA2.
Data set [6] can be described thus: Binding affinity to human serum albumin/alpha-1 acidglycoprotein after 6 mins by HPLC method. Conditions: human serum albumin/alpha-1 acid glycoprotein, read-out: PB (converted). It counts as ADME.
A short description of data set [7]: Solubility of the compound in pH 7.4 phosphate buffered saline after 1 hr by chemiluminescent nitrogen detection assay. Type of data set: physicochemical.
The nature of data set [8]: Lipophilicity, log D of the compound at pH 7.4 by reversed phase HPLC method. Type of data set: physicochemical. The settings on record: buffer.
The nature of data set [9]: Apparent permeability of the compound after 3 hrs by HPLC-UV method. Type of data set: physicochemical. Conditions: not told.

For the compound `CC1(C)NC(=O)NC1=O`, the pIC50 in [1] is under 3.00.
For `O=C(c1cccc(F)c1)N1CC=CC1`, in [2], the pKd is 3.01. In addition, the pIC50 in [1] is 3.30.
Regarding `Cc1ccccc1-c1cc(Nc2nccs2)ccc1C`, the pIC50 in data set [3] was 4.96; in [4], 5.77.
Consider `Cc1ccccc1-c1cc(C(=O)N2CC=CC2)ccc1C`, for which the values for the pIC50 in data set [3] and in [4] were 4.05 and 6.64, respectively.
As for `Cc1ccccc1-c1cc(C(=O)N2CCCC2)ccc1C`, the pIC50 is under 4.00 in data set [3] and 4.52 in data set [4].
As to `Cc1ccc(N)cc1-c1ccccc1Cl`, the pIC50 in [3] is 4.37; in [4], 4.00; in [1], 4.00.
Regarding `Cc1ccccc1-c1cc(Nc2nc(CCCO)cs2)ccc1C`, the figures for the negative logarithm of the IC50 (pIC50) in data set [5], in [3] and in data set [4] were 5.15, under 5.00 and 6.64, respectively. Moreover, the Ratio IC50 in the data set listed under Homo sapiens was over 40.
Turning to `Cc1ccccc1-c1cc(C(=O)c2nccs2)ccc1C`, the figures for the pIC50 in data set [3] and in [4] were 5.49 and 5.70, respectively.
As for `CC(C)COc1cc(=O)n(C)c(=O)n1C`, the pIC50 in data set [1] was 3.00.
Regarding `Cc1ccc(C(=O)N2CC=CC2)cc1-c1ccccc1Cl`, the values for the pIC50 in data set [3] and in data set [4] were under 5.00 and 6.74, respectively.
For `COC(CO)Cc1csc(Nc2cc(-c3ccccc3C)c(C)cc2OCCN)n1` (racemic), in data set [6], the fraction unbound at 0.1 h is 0.03. The compound also registered a solubility at 1 h in data set [7] of 195 µM (≈ 83.4 µg/mL). Also, the pIC50 in data set [5] is 7.55; in data set [3] it was under 5.00; in data set [4], 8.62. Further, the chromatographic logD in data set [8] is 3.4. For the same compound, the Papp at 3 h in data set [9] came to 21 ×10⁻⁶ cm/s.
In the case of `COC(CO)Cn1ccc(Nc2cc(-c3ccccc3C)c(C)cc2OCCN)n1` (racemic), the fraction unbound at 0.1 h in data set [6] is 0.05. In data set [7], this compound gave a solubility at 1 h of 302 µM (≈ 124 µg/mL). The results for the pIC50 in data set [5], in data set [3] and in data set [4] were 7.74, under 6.00 and 8.85, respectively. The chromatographic logD in data set [8] stood at 3.2. In [9], the Papp at 3 h is 13 ×10⁻⁶ cm/s.
In the case of `COC(CO)Cc1csc(Nc2ccc(C)c(-c3ccccc3C)c2)n1` (racemic), the figures for the pIC50 in data set [5], in [3] and in [4] were 6.25, under 5.00 and 8.02, respectively. In addition, the Ratio IC50 in the data set listed under Homo sapiens was over 1000.
As for `COc1cc(C)c(-c2ccccc2C)cc1Nc1nc(CC(CO)OC)cs1` (racemic), the figures for the pIC50 in data set [5], in data set [3] and in data set [4] were 6.49, 5.21 and 8.44, respectively.
As for `NS(=O)(=O)c1ccccc1` [BENZENESULFONAMIDE], the pKd in data set [2] is 2.47. The pIC50 in data set [1] was under 3.00.
Take `CCN(CC)CCN(Cc1ccc(-c2ccc(C(F)(F)F)cc2)cc1)C(=O)Cn1c(SCc2ccc(F)cc2)nc(=O)c2c1CCC2` [DARAPLADIB]: the fraction unbound at 0.1 h in [6] is 0.02. In data set [7], this compound returned a solubility at 1 h of 8 µM (≈ 5.33 µg/mL). The same compound had a chromatographic logD in data set [8] of 6.2. The pIC50 in data set [3] is 7.20. Moreover, the Papp at 3 h in data set [9] is 23 ×10⁻⁶ cm/s.

The values above are taken from ChEMBL document CHEMBL3817751, “Exploitation of a Novel Binding Pocket in Human Lipoprotein-Associated Phospholipase A2 (Lp-PLA2) Discovered through X-ray Fragment Screening” (J Med Chem, 2016).
